These results are taken from ChEMBL document CHEMBL3399956, “Cell-based biological evaluations of 5-(3-bromo-4-phenethoxybenzylidene)thiazolidine-2,4-dione as promising wound healing agent” (Bioorg Med Chem, 2015).

Calls of active or inactive are those of the source. No cut-off for these calls is given here.

The target of assay [1] is T1, 15-hydroxyprostaglandin dehydrogenase [NAD(+)] (Homo sapiens) (UniProt P15428).
T1 sequence (whole entry): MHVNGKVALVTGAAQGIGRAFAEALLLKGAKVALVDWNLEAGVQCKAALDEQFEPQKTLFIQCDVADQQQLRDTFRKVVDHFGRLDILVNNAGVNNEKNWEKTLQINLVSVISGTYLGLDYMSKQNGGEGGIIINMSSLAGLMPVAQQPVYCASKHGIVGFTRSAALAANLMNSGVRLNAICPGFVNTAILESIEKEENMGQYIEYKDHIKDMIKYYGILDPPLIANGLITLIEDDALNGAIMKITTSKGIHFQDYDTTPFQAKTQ
As to the kind of experiment: Inhibition of 15-PGDH in human A549 cells assessed as increase in PGE2 level at 5 uM after 12 hrs by immunoassay relative to control. The assay is classed as cell-based.

Assay [2] concerns the target T1, 15-hydroxyprostaglandin dehydrogenase [NAD(+)] (Homo sapiens). Nature of the assay: Inhibition of 15-PGDH in human A549 cells assessed as increase in PGE2 level after 12 hrs by immunoassay. The assay is classed as cell-based.
Assay [3] deals with HS27. Nature of the assay: Induction of C-MYB expression in human HS27 cells at 5 uM by qRT-PCR analysis. Type of assay: functional, cell-based. In general terms: Quantitative PCR measures a nucleic acid by following its amplification.
The subject of assay [4] is HS27. As to the kind of experiment: Induction of GATA2 expression in human HS27 cells at 5 uM by qRT-PCR analysis. The assay is classed as functional, cell-based.
Assay [5] relates to HaCaT. As to the kind of experiment: In vitro wound healing effect on human HaCaT cells assessed as wound healing at 5 uM after 48 hrs in presence of 15-PGDH. Type of assay: functional, cell-based.
In assay [6] the test system is HS27. As to the kind of experiment: Induction of SCL expression in human HS27 cells at 5 uM by qRT-PCR analysis. The assay is classed as functional, cell-based.
In assay [7] the test system is HS27. As to the kind of experiment: Induction of KDR expression in human HS27 cells at 5 uM by qRT-PCR analysis. Type of assay: functional, cell-based.
For assay [8], the system named is HS27. Nature of the assay: Induction of RUNX1 expression in human HS27 cells at 5 uM by qRT-PCR analysis. The assay is classed as functional, cell-based.
Assay [9] relates to HS27. As to the kind of experiment: In vitro wound healing effect on human HS27 cells assessed as wound healing at 5 uM after 48 hrs. Type of assay: functional, cell-based.
Assay [10] concerns the target T2, 15-hydroxyprostaglandin dehydrogenase [NAD(+)] (Homo sapiens, UniProt P15428).
T2 sequence (P15428 whole entry): T1 sequence (whole entry)
Nature of the assay: Inhibition of 15-PGDH (unknown origin) by fluorescence spectrophotometry.

For assay [11], the system named is HaCaT. Nature of the assay: In vitro wound healing effect on human HaCaT cells assessed as improvement wound healing at 5 uM after 48 hrs. The assay is classed as functional, cell-based.
Assay [12] deals with HaCaT. Nature of the assay: Induction of SCL expression in human HaCaT cells at 5 uM by qRT-PCR analysis relative to control. Type of assay: functional.
The subject of assay [13] is HS27. As to the kind of experiment: Induction of LMO2 expression in human HS27 cells at 5 uM by qRT-PCR analysis. Type of assay: functional, cell-based.

As usually defined, the IC50 is the concentration at which inhibition is half-maximal.

As for `O=C1NC(=O)/C(=C/c2ccc(OCCCc3ccccc3)c(Br)c2)S1`, the outcome in [1] was Active.
For the molecule `O=C1NC(=O)/C(=C/c2ccc(OCCc3ccccc3)c(Br)c2)S1`, the values for the Activity result in assay [2] and in assay [1] were “Dose-dependent effect” and 451 pg/mL, respectively. For the same molecule, the result in the assay on HS27 [3], in the assay on HS27 [4], in the assay with HS27 [6], with HS27 [7], in the assay with HS27 [8] and in the assay with HS27 [13] was inactive. The inhibition entry with HaCaT [5] and with HS27 [9] was “inactive” in each case. Further, the half-inhibitory concentration (IC50) in [10] worked out at 4 nM. Further, the result with HaCaT [11] was Active. For the same molecule, the figures for the fold change (FC) (in [1]; in the assay on HaCaT [12]) were 7 and 2, respectively.
As to `COc1ccc2c(c1)c(CC(=O)O)c(C)n2C(=O)c1ccc(Cl)cc1`, the result in the assay on HaCaT [12] was inactive.
